Publication PMC8222254, “Self-assembly of an anion receptor with metal-dependent kinase inhibition and potent in vitro anti-cancer properties” (Nature Communications, 2021)
“And” between values parts separate entries of the source, which are not always exact repeats. Identical values can stand only once. Like-named read-outs stand apart in the source and are kept apart here.

How the values were obtained:
Assay in all cases: Chemosensitivity, 96 h continuous exposure, MTT assay
Type in all cases: cell-based, human
[1] = system: DLD-1
Description: (§1) All cell lines were purchased from and maintained as monolayers as described by the American Type Culture Collection with the exception of the p53^+/+ and p53^−/− isogenic clones of HCT116 human colorectal adenocarcinoma cells which were a kind gift from Professor Bert Vogelstein[54]. GBM1 cells were established from a primary GBM tumour by Heiko Wurdak and colleagues[32],[33]. Non-cancerous adult brain neural progenitor (NP1) cells were derived from a patient undergoing surgery to treat epilepsy[32],[33]. Cell culture and growth media for NP1 and GBM1 cells were as described[32],[33]. The response of cells following a continuous 96-h exposure to test compounds and platinates was determined using the MTT assay. Potency was recorded as the IC50 and the selectivity index (SI) was defined as the ratio of IC50 values for non-cancer to cancer cell lines with values >1 representing selectivity for cancer cells as opposed to non-cancer cells.
(§2) All cell lines used were maintained at low passage in antibiotic-free media. HT29, DLD-1, HCT116 p53^+/+ and HCT116 p53^−/− are all colorectal adenocarcinoma cell lines derived from different individuals and harbour different combinations of oncogenic lesions (except for the HCT116 isogenic cancer cell clones that are genetically identical except for p53 status). PSN-1, BxPC-3 and MiaPaCa2 are pancreatic carcinoma cell lines and A549 and H460 are lung carcinoma cell lines. HT29, DLD-1, PSN-1, BxPC-3, A549 and H460 cell lines were cultured in RPMI-1640 growth media (Sigma) containing 2 mM L-glutamine, 1 mM sodium pyruvate and 10% foetal bovine serum (FBS). HCT116 (p53^+/+ and p53^−/−) and MiaPaCa2 cell lines were cultured in Dulbecco’s Modified Eagle’s Medium (Sigma), 2 mM L-glutamine and 10% FBS. The ARPE-19 retinal epithelial non-cancer cell line was cultured in DMEM/F12 media (Gibco), 2 mM L-glutamine, 1 mM sodium pyruvate and 10% FBS. The MCF10A non-cancerous human breast epithelial cell line was cultured in Minimal Essential Media Eagle (Sigma), 2 mM L-glutamine, 1 mM sodium pyruvate, 10% FBS and 1x non-essential amino acids (NEAA). NP1 and GBM1 cells were cultured on plasticware coated with poly-L-ornithine (5 µg/ml) and laminin (2.4 µg/ml)[32],[33]. NP1 cells were grown in DMEM/F12 media (Gibco) supplemented with 5% FBS, 20 ng/ml hFGF, 20 ng/ml rhEGF, 0.5x B-27 supplement (Gibco), 0.5x N-2 supplement (Gibco) and 1x GLUTAMAX (Gibco). GBM1 cells were cultured in Neurobasal media (Gibco) supplemented with 40 ng/ml hFGF, 40 ng/ml rhEGF, 0.5x B-27 supplement (Gibco) and 0.5x N-2 supplement (Gibco).
(§3) [L2(Metal)3]^6+ and all the other self-assembling complexes were freshly formed by adding DMSO to individual components and mixing together by pipetting. These were then further diluted in cell culture media such that the final DMSO concentration that cells were exposed to was 0.2% (vehicle control). Cisplatin, oxaliplatin and carboplatin were dissolved in phosphate buffered saline. Cell lines were seeded into 96 well plates at 2 × 10^3 cells per well and incubated overnight at 37 °C. GBM1 cancer stem-like cells were seeded at 3 × 10^3 cells per well and NP1 neural progenitors were seeded at 1.5 × 10^3 cells per well. The following day, media was removed and replaced with fresh media containing test compounds at a range of concentrations. Cells were incubated with test compounds for a further 96 h after which the media was removed and replaced with fresh media (200 μl/well). MTT was added (20 μl at 5 mg/ml) and cells were incubated for a further 4 h. Media and MTT were removed and formazan crystals were dissolved in 150 μl of DMSO and the absorbance of the resulting solution determined at 540 nm. Dose response curves were constructed, and the concentration required to reduce cell growth by 50% (IC50) determined.

[2] = system: MiaPaCa2
Description: as §1, §2, §3

[3] = system: ARPE-19 non-cancer cells
Description: as §1, §2, §3

[4] = system: BxPC3
Description: as §1, §2, §3

[5] = system: A549
Description: as §1, §2, §3

[6] = system: HCT116 p53+/+
Description: as §1, §2, §3

[7] = system: MCF10A non-cancer cells
Description: as §1, §2, §3

**Q.** Which IC50 ([1]; DLD-1, mean of replicates, read-out: Mean IC50) does the source give for `O=P([O-])([O-])Oc1ccccc1.[Cu+2].[Cu+2].[Cu+2].c1ccc(-c2csc(NCCN(CCNc3nc(-c4ccccn4)cs3)CCNc3nc(-c4ccccn4)cs3)n2)nc1.c1ccc(-c2csc(NCCN(CCNc3nc(-c4ccccn4)cs3)CCNc3nc(-c4ccccn4)cs3)n2)nc1` [[L2Cu3(O3POPh)]4+] here?
**A.** 392 nM

**Q.** What about the IC50 ([1]; DLD-1, read-out: Mean IC50 values) of the same compound?
**A.** 392 nM

**Q.** What about the “Selectivity index (ARPE19)” value ([1]; IC50 ARPE-19 / IC50 DLD-1) of the same compound?
**A.** 293.98

**Q.** And the “Selectivity index (MCF10A)” value ([1]; IC50 MCF10A / IC50 DLD-1)?
**A.** 131.32

**Q.** And the “Relative potency (+ anion to no anion), Ratio + anion:no anion” value (“Relative potency … Ratio + anion:no anion” below) ([1]; ratio of IC50, DLD-1)?
**A.** 2.97

**Q.** What about the “Selectivity indices relative to ARPE-19, Ratio + anion:no anion” value ([1]; ratio of SI (ARPE-19), DLD-1) of the same compound?
**A.** 0.737

**Q.** What about the “Selectivity indices relative to MCF10A, Ratio + anion:no anion” value ([1]; ratio of SI (MCF 10A), DLD-1) of the same compound?
**A.** 0.359

**Q.** And the “Selectivity index (ARPE19)” value ([2]; IC50 ARPE-19 / IC50 MiaPaCa2)?
**A.** 2.44

**Q.** What about the “Selectivity index (MCF10A)” value ([2]; IC50 MCF10A / IC50 MiaPaCa2) of the same compound?
**A.** 1.09

**Q.** What about the IC50 ([2]; MiaPaCa2, mean of replicates, read-out: Mean IC50) of the same compound?
**A.** 47.2 µM

**Q.** What about the IC50 ([2]; MiaPaCa2, read-out: Mean IC50 values) of the same compound?
**A.** 47.2 µM

**Q.** And the IC50 ([2]; MiaPaCa2, single replicate, read-out: IC50 values for each replicate)?
**A.** 50.1 µM and 44.3 µM and 47.1 µM

**Q.** And the “Relative potency … Ratio + anion:no anion” value ([2]; ratio of IC50, MiaPaCa2)?
**A.** 4.00

**Q.** And the “Selectivity indices relative to ARPE-19, Ratio + anion:no anion” value ([2]; ratio of SI (ARPE-19), MiaPaCa2)?
**A.** 0.548

**Q.** And the “Selectivity indices relative to MCF10A, Ratio + anion:no anion” value ([2]; ratio of SI (MCF 10A), MiaPaCa2)?
**A.** 0.267

**Q.** What about the IC50 ([3]; ARPE-19, mean of replicates, read-out: Mean IC50) of the same compound?
**A.** 115 µM

**Q.** What about the IC50 ([3]; ARPE-19, single replicate, read-out: IC50 values for each replicate) of the same compound?
**A.** 179 µM and 157 µM and 60.7 µM and 64.1 µM

**Q.** What about the IC50 ([3]; ARPE-19 non-cancer, read-out: Mean IC50 values) of the same compound?
**A.** 115 µM

**Q.** And the “Relative potency … Ratio + anion:no anion” value ([3]; ratio of IC50, ARPE-19)?
**A.** 2.19

**Q.** And the IC50 ([4]; BXPC3, mean of replicates, read-out: Mean IC50)?
**A.** 51.9 µM

**Q.** What about the IC50 ([4]; BXPC3, read-out: Mean IC50 values) of the same compound?
**A.** 39.5 µM

**Q.** What about the IC50 ([4]; BXPC3, single replicate, read-out: IC50 values for each replicate) of the same compound?
**A.** 59.3 µM and 58.6 µM and 40.8 µM and 47.6 µM and 53 µM

**Q.** And the “Selectivity index (ARPE19)” value ([4]; IC50 ARPE-19 / IC50 BXPC3)?
**A.** 2.92

**Q.** And the “Selectivity index (MCF10A)” value ([4]; IC50 MCF10A / IC50 BXPC3)?
**A.** 1.30

**Q.** What about the “Relative potency … Ratio + anion:no anion” value ([4]; ratio of IC50, BXPC3) of the same compound?
**A.** 134.82

**Q.** What about the “Selectivity indices relative to ARPE-19, Ratio + anion:no anion” value ([4]; ratio of SI (ARPE-19), BXPC3) of the same compound?
**A.** 0.016

**Q.** And the “Selectivity indices relative to MCF10A, Ratio + anion:no anion” value ([4]; ratio of SI (MCF 10A), BXPC3)?
**A.** 0.008

**Q.** And the IC50 ([5]; A549, mean of replicates, read-out: Mean IC50)?
**A.** 1710 nM

**Q.** What about the IC50 ([5]; A549, read-out: Mean IC50 values) of the same compound?
**A.** 1710 nM

**Q.** What about the IC50 ([5]; A549, single replicate, read-out: IC50 values for each replicate) of the same compound?
**A.** 1800 nM and 1600 nM and 1720 nM

**Q.** And the “Selectivity index (ARPE19)” value ([5]; IC50 ARPE-19 / IC50 A549)?
**A.** 67.55

**Q.** What about the “Selectivity index (MCF10A)” value ([5]; IC50 MCF10A / IC50 A549) of the same compound?
**A.** 30.17

**Q.** And the “Relative potency … Ratio + anion:no anion” value ([5]; ratio of IC50, A549)?
**A.** 7.32

**Q.** What about the “Selectivity indices relative to ARPE-19, Ratio + anion:no anion” value ([5]; ratio of SI (ARPE-19), A549) of the same compound?
**A.** 0.299

**Q.** What about the “Selectivity indices relative to MCF10A, Ratio + anion:no anion” value ([5]; ratio of SI (MCF 10A), A549) of the same compound?
**A.** 0.146

**Q.** And the IC50 ([6]; HCT116 p53+/+, mean of replicates, read-out: Mean IC50)?
**A.** 167 nM

**Q.** And the IC50 ([6]; HCT116 p53+/+, read-out: Mean IC50 values)?
**A.** 167 nM

**Q.** And the IC50 ([6]; HCT116 p53+/+, single replicate, read-out: IC50 values for each replicate)?
**A.** 170 nM and 167 nM and 189 nM and 142 nM

**Q.** What about the “Selectivity index (ARPE19)” value ([6]; IC50 ARPE-19 / IC50 HCT116 p53+/+) of the same compound?
**A.** 690.06

**Q.** And the “Selectivity index (MCF10A)” value ([6]; IC50 MCF10A / IC50 HCT116 p53+/+)?
**A.** 308.25

**Q.** What about the “Relative potency … Ratio + anion:no anion” value ([6]; ratio of IC50, HCT116 p53+/+) of the same compound?
**A.** 0.34

**Q.** What about the “Selectivity indices relative to ARPE-19, Ratio + anion:no anion” value ([6]; ratio of SI (ARPE-19), HCT116 p53+/+) of the same compound?
**A.** 6.503

**Q.** What about the “Selectivity indices relative to MCF10A, Ratio + anion:no anion” value ([6]; ratio of SI (MCF 10A), HCT116 p53+/+) of the same compound?
**A.** 3.168

**Q.** What about the IC50 ([7]; MCF10A non-cancer, read-out: Mean IC50 values) of the same compound?
**A.** 51.5 µM

**Q.** What about the IC50 ([7]; MCF10A, mean of replicates, read-out: Mean IC50) of the same compound?
**A.** 51.5 µM

**Q.** And the IC50 ([7]; MCF10A, single replicate, read-out: IC50 values for each replicate)?
**A.** 60.2 µM and 49 µM and 54.9 µM and 41.9 µM

**Q.** And the “Relative potency … Ratio + anion:no anion” value ([7]; ratio of IC50, MCF10A)?
**A.** 1.07
